experiment: Octanol-water partition coefficient, log D of the compound at pH 7.4 by shake flask method; format: physicochemical

Point of comparison: CCn1cc(CN2CCn3c(ccc(-n4cnc(C)c4)c3=O)C2=O)c2ccc(C(F)(F)F)cc21, logD 4.1. Against it:
- Cc1cn(-c2ccc3n(c2=O)CCN(Cc2cccc4ccccc24)C3=O)cn1 — lower, 2.7
- Cc1cn(-c2ccc3n(c2=O)CCN(Cc2cccc4ccc(C(F)(F)F)cc24)C3=O)cn1 — lower, 3.3
